Measured values as given in ChEMBL document CHEMBL3259798, “A novel Lipoprotein lipase (LPL) agonist rescues the enzyme from inhibition by angiopoietin-like 4 (ANGPTL4)” (Bioorg Med Chem Lett, 2014).
Calls of active or inactive are those of the source. The calls are words filed in the database; no cut-off is given here.

Columns and labels:
[1] = target: T1, Lipoprotein lipase (Homo sapiens) (UniProt P06858); assay: Agonist activity at lipoprotein lipase (unknown origin) using p-nitrophenylbutyrate as substrate by spectrophotometric analysis relative to control; design: concentration or dose not given beside the values
T1 sequence (whole entry): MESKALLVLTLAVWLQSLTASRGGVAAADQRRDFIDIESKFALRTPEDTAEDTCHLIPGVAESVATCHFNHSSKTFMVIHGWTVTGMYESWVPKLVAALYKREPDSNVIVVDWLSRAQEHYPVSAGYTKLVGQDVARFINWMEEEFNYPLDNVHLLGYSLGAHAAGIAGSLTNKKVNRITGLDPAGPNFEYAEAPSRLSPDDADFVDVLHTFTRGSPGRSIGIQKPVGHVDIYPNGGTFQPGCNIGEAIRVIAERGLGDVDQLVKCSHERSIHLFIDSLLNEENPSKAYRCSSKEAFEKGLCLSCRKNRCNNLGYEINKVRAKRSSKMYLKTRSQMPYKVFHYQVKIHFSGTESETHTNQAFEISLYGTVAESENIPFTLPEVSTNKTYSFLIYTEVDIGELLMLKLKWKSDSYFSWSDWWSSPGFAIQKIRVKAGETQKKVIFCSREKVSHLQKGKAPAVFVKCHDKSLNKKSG

[2] = target: T1, Lipoprotein lipase (Homo sapiens); assay: Activation of lipoprotein lipase (unknown origin) assessed as reversal of ANGPTL4-mediated enzyme inhibition treated with ANGPTL4 for 30 mins followed by substrate addition measured after 20 mins by spectrophotometric analysis
[3] = target: T1, Lipoprotein lipase (Homo sapiens); assay: Agonist activity at lipoprotein lipase (unknown origin) using p-nitrophenylbutyrate as substrate by spectrophotometric analysis relative to NO-1886
[4] = target: T1, Lipoprotein lipase (Homo sapiens); assay: Agonist activity at lipoprotein lipase (unknown origin) using p-nitrophenylbutyrate as substrate at 40 uM by spectrophotometric analysis
[5] = target: T1, Lipoprotein lipase (Homo sapiens); assay: Agonist activity at lipoprotein lipase (unknown origin) using p-nitrophenylbutyrate as substrate by spectrophotometric analysis

SMILES | Activity [1] [%] | Activity [2] | fold change (FC) [3] | Activity [4] | Activity [5]
CC1(C)CC1(C(=O)NCCCn1ccnc1)c1ccc(F)cc1 (configuration not stated) | 342 | Dose-dependent effect | 2 | – | –
CC1(C(=O)NCCCN2CCOCC2)CC1(Br)Br (configuration not stated) | 130 | – | – | – | –
CC1(C(=O)NCCCn2ccnc2)CC1(Cl)Cl (configuration not stated) | 196 | Dose-dependent effect | – | Active | Dose-dependent effect
CCOP(=O)(Cc1ccc(C(=O)Nc2ccc(Br)cc2C#N)cc1)OCC | 170 | inactive | – | – | –

Now from value to compound:

Activity [1] [%] | Activity [2] | fold change (FC) [3] | Activity [4] | Activity [5] | SMILES
122 | – | – | – | – | CC1(C(=O)NCCCn2cnc(Cl)c2)CC1(Br)Br (configuration not stated)
113 | – | – | – | – | Cc1cn(CCCNC(=O)C2(C)CC2(Br)Br)cn1 (configuration not stated)
